The text below walks through data of patent US11459586B2, “Methods for increasing efficiency of nuclease-mediated gene editing in stem cells” (President and Fellows of Harvard College, priority 2016, dated 2022).

In the assay the test system is human iPSC. Nature of the assay: Jak2 V617F single base pair editing in hiPSC, HR and NHEJ by MiSeq. Type of assay: cell-based. From the text:
FIGS. 6A-C. Bcl-2 overexpression increases the efficiency of engineering single base pair changes using ssODN donors in human iPSC. FIG. 6A. A sgRNA was designed to target exon 14 of human JAK2. The V617F mutation was encoded within 110 bp ssODN donors (in either the plus or minus orientation) or a plasmid containing 1.9 kb and 1.3 kb flanking homology arms. Small triangles indicate the primer sites for the genotyping PCR reaction outside the ssODN sequence. Plain human iPSC were transfected with 2 μg “Cas9 only sgRNA” or “Cas9 Bcl-2 sgRNA” expression plasmid and/or 10 μM ssODN or 2 μg V617F plasmid donor. 17 days later, cells were harvested for genomic DNA purification. The genomic region around exon 14 was PCR amplified and analyzed by MiSeq. FIG. 6B. […] The percent of MiSeq reads containing the Jak2 V617F mutation (HR) or indel mutations (NHEJ) is indicated together with a plot of bp position along the PCR product versus the number of sequencing reads. […]
A second round of nested PCR with PCR index primers sold under the trademark NEXTERA™ index primers (IIlumina) was used to add barcodes and remaining adaptor sequences. Both PCR reactions were supplemented with fluorescent dye sold under the trademark SYBR® Green (Invitrogen) and monitored on a quantitative PCR machine to prevent over-amplification. […]

In the case of “Bcl-2: B cell lymphoma 2 protein, anti-apoptotic, overexpressed from lentivirus or Cas9 plasmid”, for the setting “oligo (ssODN) donors, Bcl-2 on the Cas9 plasmid”, the “increase of absolute recombination frequency (HR)” value is recorded as 2-4 fold. Moreover, for the setting “plasmid donor, Bcl-2 on the Cas9 plasmid (from 25% without)”, the “absolute recombination frequency (HR)” value is 39%.
